Test results published in patent US11045457B2, “Piperidinyl-3-(aryloxy)propanamides and propanoates” (priority 2018, dated 2021).

Each compound was assayed against SSTR4 (Homo sapiens (Human), UniProt P31391) (assay: Inhibition of forskolin stimulated cAMP in CHO-K1 cells overexpressing SSTR4). Details: not given.
Assay type: cell-based
Procedure: Inhibition of Forskolin Stimulated cAMP in Cells Overexpressing SSTR4
This cell-based assay measures the ability of compounds to inhibit forskolin stimulated cAMP in CHO-K1 cells overexpressing SSTR4. CHO-K1 cells overexpressing SSTR4 (CHO-SSTR4) are purchased from DiscoveRx (product code 95-0059C2). The CHO-SSTR4 cells are maintained in F12K media with 10% Fetal Bovine Serum (Hyclone), 1% Pen/Strep (Life Technologies), and 800 μg/mL G418 (Life Technologies). […] The next day, the culture media is removed from the cells and the cells are washed (added then removed) with Kreb's Ringer Buffer (ZenBio, KRB-1000 mL). […] The cells are incubated in […] for 30 minutes at room temperature. Cellular cAMP levels are detected with a HTRF LANCE Ultra cAMP kit (Perkin Elmer, catalog number TRF0264).
The assay is performed in accordance with the manufacturer's instructions. Five μL of diluted Eu-W8044 labeled streptavidin (dilution: 1:50 in cAMP Detection Buffer) is added to each well. Then 5 μL of diluted biotin cAMP (dilution: 1:150 in cAMP Detection Buffer) is added to each well. The plates are covered and allowed to incubate for 60 minutes at room temperature on a shaker. […] The pEC50 values are generated using Activity Base for Screening Data Management.

SSTR4, sequence (P31391 whole entry): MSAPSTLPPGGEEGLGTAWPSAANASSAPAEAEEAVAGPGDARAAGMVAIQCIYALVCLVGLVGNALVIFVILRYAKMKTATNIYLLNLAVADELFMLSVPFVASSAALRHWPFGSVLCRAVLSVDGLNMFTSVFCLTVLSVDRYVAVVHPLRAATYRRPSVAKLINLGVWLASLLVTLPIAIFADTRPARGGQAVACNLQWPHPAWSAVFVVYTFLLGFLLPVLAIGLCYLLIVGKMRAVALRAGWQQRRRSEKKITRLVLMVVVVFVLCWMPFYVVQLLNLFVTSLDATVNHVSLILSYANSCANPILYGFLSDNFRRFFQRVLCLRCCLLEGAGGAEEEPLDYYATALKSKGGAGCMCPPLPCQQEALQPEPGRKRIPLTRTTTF

SMILES | SSTR4 Activity pEC50
CN1CC[C@@H](NC(=O)C(C)(C)COc2ncccc2C(F)(F)F)[C@H](c2ccccc2)C1 (relative stereo) [Example 164, 2,2-dimethyl-N-(trans-1-methyl-3-phenylpiperidin-4-yl)-3-((3-(trifluoromethyl)pyridin-2-yl)oxy)propanamide] | 6.6
CN1CC[C@@H](NC(=O)C(C)(C)COc2ncccc2OC(F)(F)F)[C@H](c2ccccc2)C1 (relative stereo) [Example 167, 2,2-dimethyl-N-(trans-1-methyl-3-phenylpiperidin-4-yl)-3-((3-(trifluoromethoxy)pyridin-2-yl)oxy)propanamide] | 6.8
C[C@@H]1CN(C)CC[C@H]1NC(=O)C(F)(F)COc1ncccc1C(F)(F)F (relative stereo) [Example 189, trans-N-(1,3-dimethylpiperidin-4-yl)-2,2-difluoro-3-((3-(trifluoromethyl)pyridin-2-yl)oxy)propanamide] | 6.8
C[C@@H]1CN(C)CC[C@H]1NC(=O)C(C)(C)COc1ncccc1C(F)(F)F (single isomer, unassigned) [Example 106] | 6.0
Cc1cnc(OCC(C)(C)C(=O)N[C@@H]2CCN(C)C[C@H]2C)c(C)c1 (single isomer, unassigned) [Example 140] | 6.2
Cc1cccnc1OCC(C)(C)C(=O)NC1CCN(C)C1 (centres unmarked) [Example 2, 2,2-dimethyl-3-((3-methylpyridin-2-yl)oxy)-N-(1-methylpyrrolidin-3-yl)propanamide] | 6.3
CN1CCC(NC(=O)C(C)(C)COc2ncccc2C#N)CC1 [Example 3, 3-((3-cyanopyridin-2-yl)oxy)-2,2-dimethyl-N-(1-methylpiperidin-4-yl)propanamide] | 5.8
CN1CC[C@@H](NC(=O)C(C)(C)COc2ncncc2C2CC2)C1 [Example 4, (R)-3-((5-cyclopropylpyrimidin-4-yl)oxy)-2,2-dimethyl-N-(1-methylpyrrolidin-3-yl)propanamide] | 6.5
CN1CCC(NC(=O)C(C)(C)COc2ncncc2C2CC2)CC1 [Example 5, 3-((5-cyclopropylpyrimidin-4-yl)oxy)-2,2-dimethyl-N-(1-methylpiperidin-4-yl)propanamide] | 6.8
Cc1cnc(OCC(C)(C)C(=O)NC2CCN(C)CC2)c(C2CC2)c1 [Example 6, 3-((3-cyclopropyl-5-methylpyridin-2-yl)oxy)-2,2-dimethyl-N-(1-methylpiperidin-4-yl)propanamide] | 7.3
Cc1cnc(OCC(C)(C)C(=O)N[C@@H]2CCN(C)C2)c(C2CC2)c1 [Example 7, (R)-3-((3-cyclopropyl-5-methylpyridin-2-yl)oxy)-2,2-dimethyl-N-(1-methylpyrrolidin-3-yl)propanamide] | 7.2
Cc1cc(C2CC2)cnc1OCC(C)(C)C(=O)NC1CCN(C)CC1 [Example 8, 3-((5-cyclopropyl-3-methylpyridin-2-yl)oxy)-2,2-dimethyl-N-(1-methylpiperidin-4-yl)propanamide] | 7.0
Cc1ccc(C2CC2)c(OCC(C)(C)C(=O)NC2CCN(C)CC2)n1 [Example 9, 3-((3-cyclopropyl-6-methylpyridin-2-yl)oxy)-2,2-dimethyl-N-(1-methylpiperidin-4-yl)propanamide] | 7.1
Cc1ccc(C2CC2)c(OCC(C)(C)C(=O)N[C@@H]2CCN(C)C2)n1 [Example 10, (R)-3-((3-cyclopropyl-6-methylpyridin-2-yl)oxy)-2,2-dimethyl-N-(1-methylpyrrolidin-3-yl)propanamide] | 6.8
CN1CC(NC(=O)C(C)(C)COc2ncccc2C(F)(F)F)CC1(C)C (centres unmarked) [Example 35, 2,2-dimethyl-3-((3-(trifluoromethyl)pyridin-2-yl)oxy)-N-(1,5,5-trimethylpyrrolidin-3-yl)propanamide] | 6.5
CN1CC[C@H](CNC(=O)C(C)(C)COc2ncccc2C(F)(F)F)C1 [Example 36, (R)-2,2-dimethyl-N-((1-methylpyrrolidin-3-yl)methyl)-3-((3-(trifluoromethyl)pyridin-2-yl)oxy)propanamide] | 6.1
CN1CC[C@@H](CNC(=O)C(C)(C)COc2ncccc2C(F)(F)F)C1 [Example 37, (S)-2,2-dimethyl-N-((1-methylpyrrolidin-3-yl)methyl)-3-((3-(trifluoromethyl)pyridin-2-yl)oxy)propanamide] | 6.3
CN1CCC(NC(=O)C(C)(C)COc2ncccc2Cl)CC1 [Example 38, 3-((3-chloropyridin-2-yl)oxy)-2,2-dimethyl-N-(1-methylpiperidin-4-yl)propanamide] | 7.0
CN1CCC(NC(=O)C(C)(C)COc2ncccc2F)CC1 [Example 39, 3-((3-fluoropyridin-2-yl)oxy)-2,2-dimethyl-N-(1-methylpiperidin-4-yl)propanamide] | 6.3
CN1CCC(NC(=O)C(C)(C)COc2ncc(F)cc2F)CC1 [Example 40, 3-((3,5-difluoropyridin-2-yl)oxy)-2,2-dimethyl-N-(1-methylpiperidin-4-yl)propanamide] | 6.1
CN1CCC(NC(=O)C(C)(C)COc2cnccc2C(F)(F)F)CC1 [Example 42, 2,2-dimethyl-N-(1-methylpiperidin-4-yl)-3-((4-(trifluoromethyl)pyridin-3-yl)oxy)propanamide] | 7.2
CN1CCC(NC(=O)C(C)(C)COc2ccncc2C(F)(F)F)CC1 [Example 43, 2,2-dimethyl-N-(1-methylpiperidin-4-yl)-3-((3-(trifluoromethyl)pyridin-4-yl)oxy)propanamide] | 6.9
CN1CCC(NC(=O)C(C)(C)COc2nccc(Cl)c2F)CC1 [Example 44, 3-((4-chloro-3-fluoropyridin-2-yl)oxy)-2,2-dimethyl-N-(1-methylpiperidin-4-yl)propanamide] | 5.9
CN1CCC(NC(=O)C(C)(C)COc2ncc(F)cc2Cl)CC1 [Example 45, 3-((3-chloro-5-fluoropyridin-2-yl)oxy)-2,2-dimethyl-N-(1-methylpiperidin-4-yl)propanamide] | 5.8
Cc1nc(Cl)ccc1OCC(C)(C)C(=O)NC1CCN(C)CC1 [Example 46, 3-((6-chloro-2-methylpyridin-3-yl)oxy)-2,2-dimethyl-N-(1-methylpiperidin-4-yl)propanamide] | 5.4
Cc1cc(Cl)cnc1OCC(C)(C)C(=O)NC1CCN(C)CC1 [Example 48, 3-((5-chloro-3-methylpyridin-2-yl)oxy)-2,2-dimethyl-N-(1-methylpiperidin-4-yl)propanamide] | 6.8
Cc1cnccc1OCC(C)(C)C(=O)NC1CCN(C)CC1 [Example 50, 2,2-dimethyl-N-(1-methylpiperidin-4-yl)-3-((3-methylpyridin-4-yl)oxy)propanamide] | 6.2
Cc1cc(C#N)cnc1OCC(C)(C)C(=O)NC1CCN(C)CC1 [Example 51, 3-((5-cyano-3-methylpyridin-2-yl)oxy)-2,2-dimethyl-N-(1-methylpiperidin-4-yl)propanamide] | 6.1
CCOc1cccnc1OCC(C)(C)C(=O)NC1CCN(C)CC1 [Example 54, 3-((3-ethoxypyridin-2-yl)oxy)-2,2-dimethyl-N-(1-methylpiperidin-4-yl)propanamide] | 7.0

Same assay, conditions: read-out: SSTR4 Activity pEC50 (converted)

SMILES | EC50 [nM]
CN1CC[C@@H](c2cnn(C)c2)[C@H](NC(=O)C(C)(C)COc2ncccc2C(F)(F)F)C1 (relative stereo) [Example 169, 2,2-dimethyl-N-(trans-1-methyl-4-(1-methyl-1H-pyrazol-4-yl)piperidin-3-yl)-3-((3-(trifluoromethyl)pyridin-2-yl)oxy)propanamide] | 251
CC(C)(COc1ncccc1C(F)(F)F)C(=O)O[C@@H]1CCNC[C@H]1c1ccccc1 (relative stereo) [Example 171, trans-3-phenylpiperidin-4-yl 2,2-dimethyl-3-((3-(trifluoromethyl)pyridin-2-yl)oxy)propanoate] | 316
Cc1cnc(OCC(C)(C)C(=O)N[C@@H]2CN(C)C[C@H]2C)c(C)c1 (relative stereo) [Example 183, 3-((3,5-dimethylpyridin-2-yl)oxy)-N-(trans-1,4-dimethylpyrrolidin-3-yl)-2,2-dimethylpropanamide] | 251
C[C@@H]1CN(C)CC[C@H]1NC(=O)C(F)(F)COc1ncccc1C1CC1 (relative stereo) [Example 192, trans-3-((3-cyclopropylpyridin-2-yl)oxy)-N-(1,3-dimethylpiperidin-4-yl)-2,2-difluoropropanamide] | 12.6
CC[C@@H]1CN(C)CC[C@H]1NC(=O)C(C)(C)COc1ncccc1C(F)(F)F (single isomer, unassigned) [Example 110, trans-N-(3-ethyl-1-methylpiperidin-4-yl)-2,2-dimethyl-3-((3-(trifluoromethyl)pyridin-2-yl)oxy)propanamide] | 1
CN1CCC(NC(=O)C(C)(C)COc2cccnc2C(F)(F)F)CC1 [Example 52, 2,2-dimethyl-N-(1-methylpiperidin-4-yl)-3-((2-(trifluoromethyl)pyridin-3-yl)oxy)propanamide] | 79.4
